Laboratory results reported in publication PMC5015447 (Biochemistry, 2016).
“And” between values parts separate entries of the source, which are not always exact repeats. Equal values may be shown once. Read-outs that look alike come from different tables or passages of the source.

Key:
[1] = target: E. coli cofactor-dependent phosphoglycerate mutase (dPGM) (Escherichia coli, UniProt P62707); assay: biochemical; format: binding
[2] = system: S. cerevisiae dPGM; details: cited from earlier work
[3] = target: T1, dPGM R9A (Escherichia coli, UniProt P62707, R10A); assay: ATP binding by isothermal titration calorimetry, R9A; set-up: species or system E. coli
[4] = target: T2, dPGM K222A (Escherichia coli, UniProt P62707, K223A); assay: ATP binding by isothermal titration calorimetry, K222A; set-up: species or system E. coli
[5] = target: Wild-type dPGM (Escherichia coli, UniProt P62707); assay: ATP binding by isothermal titration calorimetry, wild-type dPGM; set-up: species or system E. coli
[6] = target: T2, dPGM K222A; assay: Equilibrium unfolding of dPGM variant K222A; format: binding, E. coli
[7] = target: T1, dPGM R9A; assay: Equilibrium unfolding of dPGM variant R9A with 1.0 mM ATP; format: binding, E. coli
[8] = target: T3, dPGM R116A (Escherichia coli, UniProt P62707, R117A); assay: Equilibrium unfolding of dPGM variant R116A with 1.0 mM ATP; format: binding, E. coli
[9] = target: T4, dPGM K99A (Escherichia coli, UniProt P62707, K100A); assay: Equilibrium unfolding of dPGM variant K99A with 1.0 mM ATP; format: binding, E. coli
[10] = target: T5, dPGM R115A (Escherichia coli, UniProt P62707, R116A); assay: Equilibrium unfolding of dPGM variant R115A with 1.0 mM ATP; format: binding, E. coli
[11] = target: T4, dPGM K99A; assay: ATP binding by isothermal titration calorimetry, K99A; set-up: species or system E. coli
[12] = system: cofactor-dependent phosphoglycerate mutase (dPGM); details: cited from earlier work
[13] = target: T3, dPGM R116A; assay: ATP binding by isothermal titration calorimetry, R116A; set-up: species or system E. coli
[14] = target: T5, dPGM R115A; assay: ATP binding by isothermal titration calorimetry, R115A; set-up: species or system E. coli
[15] = ligand 1.0 mM, one global fit of all nucleotide data sets
[16] = 50 mM phosphate, global fit with no-ligand data
[17] = 50 mM phosphate, global fit with no-ligand data (shared m-value)

T3 sequence (P62707 whole entry R117A): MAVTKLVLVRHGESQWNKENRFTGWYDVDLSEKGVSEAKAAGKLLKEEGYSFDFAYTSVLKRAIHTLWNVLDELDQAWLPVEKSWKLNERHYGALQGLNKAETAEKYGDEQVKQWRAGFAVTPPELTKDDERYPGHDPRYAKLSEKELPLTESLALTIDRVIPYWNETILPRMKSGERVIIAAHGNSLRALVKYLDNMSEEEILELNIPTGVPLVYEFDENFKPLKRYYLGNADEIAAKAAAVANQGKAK
T4 sequence (P62707 whole entry K100A): as the sequence (P62707 whole entry R117A) above, with K100A, A117R counted along it
T2 sequence (P62707 whole entry K223A): as the sequence (P62707 whole entry R117A) above, with A117R, K223A counted along it
T1 sequence (P62707 whole entry R10A): as the sequence (P62707 whole entry R117A) above, with R10A, A117R counted along it
Sequence of E. coli cofactor-dependent phosphoglycerate mutase (dPGM) (P62707 whole entry): as the sequence (P62707 whole entry R117A) above, with A117R counted along it
T5 sequence (P62707 whole entry R116A): as the sequence (P62707 whole entry R117A) above, with R116A, A117R counted along it
Sequence of Wild-type dPGM (P62707 whole entry): as the sequence (P62707 whole entry R117A) above, with A117R counted along it

Nc1ncnc2c1ncn2[C@@H]1O[C@H](CO)[C@@H](O)[C@H]1O [Adenosine, adenosine]
effect on equilibrium unfolding (first unfolding transition) ([1]; ligand 1.0 mM): negligible | ΔΔGI-N° = ΔGI-N°(ligand) – ΔGI-N°(no ligand) ([1]; ligand 1.0 mM): 0.09 (± 0.07) kcal/mol | ΔGI-N° [1, 15]: 11.7 (± 0.1) kcal/mol | ΔGU-I [1, 15]: 5.6 (± 0.2) kcal/mol

Nc1ncnc2c1ncn2[C@@H]1O[C@H](COP(=O)(O)OP(=O)(O)OP(=O)(O)O)[C@@H](O)[C@H]1O [ATP, adenosine triphosphate]
stabilization in energetics-based proteome screen [2]: stabilizes | Kd [3]: 5.5 ± 0.5 µM | ΔΔGbind° = ΔGbind°(varient) – ΔGbind°(WT) ([3]; R9A): –1.7 ± 0.1 kcal/mol | ΔGbind° ([3]; R9A, calculated with Eq. 6 using [ATP] = 1.0 mM): 13 ± 0.21 kJ/mol | Kd [4]: 0.4 ± 0.1 µM | ΔΔGbind° = ΔGbind°(varient) – ΔGbind°(WT) ([4]; K222A): –0.1 ± 0.2 kcal/mol | ΔGbind° ([4]; K222A, calculated with Eq. 6 using [ATP] = 1.0 mM): 19.2 ± 0.42 kJ/mol | Kd [5]: 0.32 ± 0.07 µM | ΔGbind° ([5]; WT, calculated with Eq. 6 using [ATP] = 1.0 mM): 19.7 ± 0.42 kJ/mol | ΔGATP° = ΔGI-N°(1 mM ATP) - ΔGI-N°(No ATP) [6]: 38 ± 8.4 kJ/mol | ΔGI-N° ([6]; 1.0 mM ATP): 87.9 ± 8.4 kJ/mol | ΔGU-I° ([6]; 1.0 mM ATP): 18.4 ± 3.8 kJ/mol | ΔΔGATP° = ΔGATP°(variant) – ΔGATP°(WT) ([6]; 1.0 mM ATP): 5.02 ± 4.2 kJ/mol | ΔGATP° = ΔGI-N°(1 mM ATP) - ΔGI-N°(No ATP) [7]: 17.6 ± 0.84 kJ/mol | ΔGI-N° [7]: 69.5 ± 0.84 kJ/mol | ΔGU-I° [7]: 26.4 ± 2.1 kJ/mol | ΔΔGATP° = ΔGATP°(variant) – ΔGATP°(WT) [7]: –1.4 ± 0.1 kcal/mol | ΔGATP° = ΔGI-N°(1 mM ATP) - ΔGI-N°(No ATP) [8]: 22.6 ± 0.84 kJ/mol | ΔGI-N° [8]: 75.7 ± 0.84 kJ/mol | ΔGU-I° [8]: 24.3 ± 1.7 kJ/mol | ΔΔGATP° = ΔGATP°(variant) – ΔGATP°(WT) [8]: –0.8 ± 0.1 kcal/mol | ΔGI-N° [9]: 77.4 ± 0.84 kJ/mol | ΔGU-I° [9]: 25 ± 4.2 kJ/mol | ΔΔGATP° = ΔGATP°(variant) – ΔGATP°(WT) [9]: –1.5 ± 0.2 kcal/mol | ΔGATP° = ΔGI-N°(1 mM ATP) - ΔGI-N°(No ATP) [10]: 20.1 ± 1.7 kJ/mol | ΔGI-N° [10]: 81.2 ± 1.3 kJ/mol | ΔGU-I° [10]: 21 ± 4.2 kJ/mol | ΔΔGATP° = ΔGATP°(variant) – ΔGATP°(WT) [10]: –1.1 ± 0.2 kcal/mol | Kd [11]: 7 ± 2 µM | ΔΔGbind° = ΔGbind°(varient) – ΔGbind°(WT) ([11]; K99A): –1.8 ± 0.2 kcal/mol | ΔGbind° ([11]; K99A, calculated with Eq. 6 using [ATP] = 1.0 mM): 12.1 ± 0.84 kJ/mol | Kd [1]: 1.5 ± 0.5 µM | effective stability (ΔGeff) ([1]; 1.0 µM dPGM, 1.0 mM ATP, native conditions): 22.6 kJ/mol | Cm of the single apparent unfolding transition ([1]; 1.0 mM ATP): about 3.6 M urea | increase in stability per monomeric unit ([1]; 1.0 mM ATP): 14.6 kJ/mol | ΔG° of binding of ATP to the native dimer (N2) ([1]; 1.0 mM ATP, 2.5 M urea, per monomer): –3.5 kcal/mol | increase in ΔGI-N° (ΔGATP°) of wild type ([1]; 1.0 mM ATP, Table 1 fit): 29.3 ± 0.84 kJ/mol and 29.3 kJ/mol | maximum fraction of intermediate ([1]; 1.0 mM ATP, around 3.7 M urea): 0.12 | effect on ΔGU-I° ([1]; 1.0 mM ATP, called insignificant): 2.5 kJ/mol | ΔGU-N° ([1]; 1.0 mM ATP, fluorescence): 128 ± 3.3 kJ/mol | ΔGI-N ([1]; 1.0 mM ATP, fluorescence, global fit with no-ATP data, 30 µg/mL dPGM, pH 8.0): 77.4 ± 0.84 kJ/mol | effective free energy change, I to N2•L2 ([1]; 2.5 M urea, 1.0 mM ATP, 1 µM dPGM): –2.4 kcal/mol per monomer | ΔGN-I° for reaction from I to N2•L2 ([1]; 2.5 M urea, 1.0 mM ATP, from Table 1 and Eq. 2): –12.5 kcal/mol | ΔΔGI-N° = ΔGI-N°(ligand) – ΔGI-N°(no ligand) ([1]; ligand 1.0 mM): 7.7 (± 0.2) kcal/mol | ΔGI-N° [1, 15]: 19.3 (± 0.2) kcal/mol | ΔGU-I [1, 15]: 5.0 (± 0.3) kcal/mol | stabilization by pulse proteolysis with purified dPGM ([12]; 1.0 mM ATP): stabilization | Kd [13]: 1.5 ± 0.3 µM | ΔΔGbind° = ΔGbind°(varient) – ΔGbind°(WT) ([13]; R116A): –0.9 ± 0.2 kcal/mol | ΔGbind° ([13]; R116A, calculated with Eq. 6 using [ATP] = 1.0 mM): 15.9 ± 0.42 kJ/mol | Kd [14]: 7 ± 2 µM | ΔΔGbind° = ΔGbind°(varient) – ΔGbind°(WT) ([14]; R115A): –1.8 ± 0.2 kcal/mol | ΔGbind° ([14]; R115A, calculated with Eq. 6 using [ATP] = 1.0 mM): 12.1 ± 0.84 kJ/mol

Nc1ncnc2c1ncn2[C@@H]1O[C@H](COP(=O)(O)O)[C@@H](O)[C@H]1O [AMP, adenosine monophosphate]
Kd ([1]; calculated with Eq. 6 from stability increase, ligand 1.0 mM): 240 ± 40 µM | effect on equilibrium unfolding (first unfolding transition) ([1]; ligand 1.0 mM): significantly shift the first unfolding transition to higher urea concentrations | ΔΔGI-N° = ΔGI-N°(ligand) – ΔGI-N°(no ligand) ([1]; ligand 1.0 mM): 1.96 (± 0.09) kcal/mol | ΔGI-N° [1, 15]: 13.6 (± 0.1) kcal/mol | ΔGU-I [1, 15]: 5.5 (± 0.2) kcal/mol

Nc1ncnc2c1ncn2[C@@H]1O[C@H](COP(=O)(O)OP(=O)(O)O)[C@@H](O)[C@H]1O [ADP, adenosine diphosphate]
Kd [1]: 18 ± 3 µM | effect on equilibrium unfolding (first unfolding transition) ([1]; ligand 1.0 mM): significantly shift the first unfolding transition to higher urea concentrations | ΔΔGI-N° = ΔGI-N°(ligand) – ΔGI-N°(no ligand) ([1]; ligand 1.0 mM): 4.8 (± 0.1) kcal/mol | ΔGI-N° [1, 15]: 16.4 (± 0.1) kcal/mol | ΔGU-I [1, 15]: 5.2 (± 0.2) kcal/mol

phosphate
ΔΔGI-N° ([1]; 50 mM phosphate): 5.9 (± 0.1) kcal/mol | ΔGI-N° [1, 16]: 17.3 (± 0.1) kcal/mol | ΔGU-I [1, 16]: 5.6 (± 0.3) kcal/mol | mI-N [1, 17]: 2.36 (± 0.03) kcal mol^−1M^−1 | mU-I [1, 17]: 1.82 (± 0.08) kcal mol^−1M^−1 | Kd ([1]; calculated with Eq. 6, 50 mM phosphate): 350 ± 60 µM

Nc1ncnc2c1ncn2[C@@H]1O[C@H](CO[P@](=O)(O)O[P@](=O)(O)O[P@@](=O)(O)S)[C@@H](O)[C@H]1O [ATPγS]
protein remaining intact after pulse proteolysis ([12]; E. coli lysate, 2.0 M urea, 1.0 mM ATPγS): a significant population of the protein remained intact

Nc1nc2c(ncn2[C@@H]2O[C@H](COP(=O)(O)OP(=O)(O)OP(=O)(O)O)[C@@H](O)[C@H]2O)c(=O)[nH]1 [GTP, guanosine triphosphate]
Kd [1]: 0.4 ± 0.5 µM | effect on equilibrium unfolding (first unfolding transition) ([1]; ligand 1.0 mM): significantly shift the first unfolding transition to higher urea concentrations | ΔΔGI-N° = ΔGI-N°(ligand) – ΔGI-N°(no ligand) ([1]; ligand 1.0 mM): 9.3 (± 0.8) kcal/mol | ΔGI-N° [1, 15]: 20.9 (± 0.8) kcal/mol | ΔGU-I [1, 15]: 4.3 (± 0.6) kcal/mol

O=P(O)(O)OP(=O)(O)O [Pyrophosphate]
Kd [1]: 1.2 ± 0.2 µM | mI-N [1]: 2.47 (± 0.04) kcal mol^−1M^−1 | mU-I [1]: 1.62 (± 0.09) kcal mol^−1M^−1 | ΔGI-N° [1]: 16.8 (± 0.1) kcal/mol | ΔGU-I [1]: 5.2 (± 0.3) kcal/mol | ΔΔGI-N° [1]: 5.3 (± 0.1) kcal/mol
